Consider one compound from patent US6403632B1, “Lactam metalloprotease inhibitors” (priority 2000, dated 2002).

The subject of this experiment is cartilage degradation. Nature of the experiment: Acute Cartilage Degradation Rat Model. The experiment is classed as in vivo. The note with it: rats. From the text: Acute Cartilage Degradation Rat Model A novel in vivo model of acute cartilage degradation in rats has been characterized as a method to determine the proteoglycan content in the synovial fluid after the induction of cartilage degradation.

The structures appear in SMILES notation.

For the compound `COc1ccc2c(c1)c(CC(=O)O)c(C)n2C(=O)c1ccc(Cl)cc1` [Indomethacin], the “inhibition of cartilage degradation, as measured by increased proteoglycan content in the synovial fluid” value is “inactive”.
